This is an account of results in ChEMBL document CHEMBL1240304, “Host sphingolipid biosynthesis as a target for hepatitis C virus therapy” (Nat Chem Biol, 2005).

Active and inactive are the calls of the source. The calls are words filed in the database; no cut-off is given here.

In series [1] the test system is Hepatitis C virus. As to the kind of experiment: Antiviral activity against Hepatitis C virus (isolate Con1) genotype 1b in human Huh-7/3-1 cells assessed as reduction in NS5B protein level in golgi-derived detergent-resistant membrane at 1 uM after 72 hrs by immunoblotting analysis. To be noted: Hepacivirus hominis. The class given is functional, organism-based.

The test system of series [2] is Hepatitis C virus. The series can be described thus: Antiviral activity against Hepatitis C virus (isolate Con1) genotype 1b in human Huh-7/3-1 cells assessed as inhibition of HCV replication. Format: functional, organism-based, Hepacivirus hominis. To be noted: isolate Con1, Huh-7.
A short description of series [3]: Cytotoxicity against human Huh-7/3-1 cells assessed as reduction in cell viability. The class given is cell-based.
For series [4], the system named is Hepatitis C virus. The series can be described thus: Antiviral activity against Hepatitis C virus (isolate Con1) genotype 1b in human Huh-7/3-1 cells assessed as reduction in NS5B protein level at 100 nM by Western blot analysis. Format: functional, organism-based. The following applies: Hepacivirus hominis, TDE = time-dependent effect.
Series [5] is described as follows: Cytotoxicity against human Huh-7/3-1 cells assessed as cell cycle progression at 0.02 to 50 uM after 72 hrs by flow-cytometry. Format: cell-based.
The test system of series [6] is Hepatitis C virus. The series can be described thus: Antiviral activity against Hepatitis C virus (isolate Con1) genotype 1b in human Huh-7/3-1 cells assessed as reduction in NS3 protein level at 1 uM by Western blot analysis in presence of 5 uM C2-ceramide. The class given is functional, organism-based. The following applies: Hepacivirus hominis.
Series [7] deals with Hepatitis C virus. The series can be described thus: Antiviral activity against Hepatitis C virus (isolate Con1) genotype 1b in human Huh-7/3-1 cells assessed as decrease in replicon RNA at 0.01 to 1 uM after 72 hrs by Northern blot analysis. The class given is functional, organism-based. The following applies: Hepacivirus hominis.
In series [8] the test system is Hepatitis C virus. The series can be described thus: Relocation of NS5B in human Huh-7/3-1 Hepatitis C virus (isolate Con1) genotype 1b replicon cells using golgi-derived detergent-resistant membrane at 10 nM after 72 hrs by immunoblotting analysis. The class given is functional, organism-based. The following applies: Hepacivirus hominis.
In series [9] the test system is Hepatitis C virus. As to the kind of experiment: Antiviral activity against Hepatitis C virus (isolate Con1) genotype 1b in human Huh-7/3-1 cells assessed as inhibition of HCV replication at 0.1 to 100 nM after 72 hrs by luciferase assay. Format: functional, organism-based. To be noted: Hepacivirus hominis.
Series [10] concerns Hepatitis C virus. As to the kind of experiment: Antiviral activity against Hepatitis C virus (isolate Con1) genotype 1b in human Huh-7/3-1 cells assessed as reduction in NS3 protein level in golgi-derived detergent-resistant membrane at 1 uM after 72 hrs by immunoblotting analysis. The following applies: Hepacivirus hominis. The class given is functional, organism-based.
Series [11] has as its system Hepatitis C virus. As to the kind of experiment: Antiviral activity against Hepatitis C virus (isolate Con1) genotype 1b in human Huh-7/3-1 cells assessed as reduction in NS3 protein level at 100 nM by Western blot analysis. Format: functional, organism-based. To be noted: Hepacivirus hominis, TDE = time-dependent effect.
Series [12] concerns Hepatitis C virus. As to the kind of experiment: microbe, parasite or virus in culture. To be noted: isolate Con1, Huh-7, 72 h.
Description: Antiviral activity against Hepatitis C virus (isolate Con1) genotype 1b in human Huh-7/3-1 cells assessed as inhibition of HCV replication after 72 hrs by luciferase assay
A short description of series [13]: Cytotoxicity against human Huh-7/3-1 cells assessed as cell viability at 0.1 to 100 uM after 72 hrs by WST-8 assay. The class given is cell-based.
The subject of series [14] is Hepatitis C virus. The series can be described thus: microbe, parasite or virus in culture. To be noted: isolate Con1, Huh-7.
Description: Antiviral activity against Hepatitis C virus (isolate Con1) genotype 1b in human Huh-7/3-1 cells assessed as inhibition of SPT activity in presence of 1 uM sphinganine
For series [15], the system named is Hepatitis C virus. As to the kind of experiment: Antiviral activity against Hepatitis C virus (isolate Con1) genotype 1b in human Huh-7/3-1 cells assessed as reduction in NS5A protein level at 100 nM by Western blot analysis. The class given is functional, organism-based. The following applies: Hepacivirus hominis, TDE = time-dependent effect.
The next series is filed under the species Homo sapiens. As to the kind of experiment: Effect on Caveolin-2 localization in human Huh-7/3-1 replicon golgi-derived detergent-resistant membrane at 1 uM after 72 hrs by immunoblotting analysis. The class given is functional.
The target of series [16] is T1, Serine palmitoyltransferase 1 (Homo sapiens, UniProt O15269).
T1 sequence (O15269 whole entry): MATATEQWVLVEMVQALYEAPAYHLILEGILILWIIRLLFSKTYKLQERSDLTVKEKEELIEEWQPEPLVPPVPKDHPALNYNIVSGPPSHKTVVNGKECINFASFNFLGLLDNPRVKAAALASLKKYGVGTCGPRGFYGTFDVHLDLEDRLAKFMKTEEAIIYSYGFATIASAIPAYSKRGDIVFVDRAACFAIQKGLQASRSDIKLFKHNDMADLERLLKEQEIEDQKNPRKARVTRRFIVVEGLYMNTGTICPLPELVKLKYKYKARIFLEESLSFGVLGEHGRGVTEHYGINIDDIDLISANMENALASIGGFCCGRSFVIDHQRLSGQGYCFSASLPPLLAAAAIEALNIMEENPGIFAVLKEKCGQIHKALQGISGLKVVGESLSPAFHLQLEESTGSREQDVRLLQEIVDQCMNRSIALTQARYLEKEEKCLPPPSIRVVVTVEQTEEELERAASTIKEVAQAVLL
As to the kind of experiment: Inhibition of human recombinant SPT1 activity in LCB1 transfected human HEK293 cells. The class given is cell-based.

In series [17] the test system is Hepatitis C virus. The series can be described thus: Antiviral activity against Hepatitis C virus (isolate Con1) genotype 1b in human Huh-7/3-1 cells assessed as disappearance of NS3 protein from perinuclear region at 100 nM after 96 hrs by immunostaining. Format: functional, organism-based. To be noted: Hepacivirus hominis.
Series [18] deals with Hepatitis C virus. As to the kind of experiment: Antiviral activity against Hepatitis C virus (isolate Con1) genotype 1b in human Huh-7/3-1 cells assessed as reduction in NS5A protein level in golgi-derived detergent-resistant membrane at 1 uM after 72 hrs by immunoblotting analysis. Format: functional, organism-based. To be noted: Hepacivirus hominis.
The nature of series [19]: Cytotoxicity against human Huh-7/3-1 cells assessed as cell viability at 0.1 to 100 uM after 72 hrs by Trypan Blue exclusion test. The class given is cell-based.
Series [20] deals with Hepatitis C virus. The series can be described thus: microbe, parasite or virus in culture. To be noted: isolate Con1, Huh-7. The source holds these as a separate data set.
Description: Antiviral activity against Hepatitis C virus (isolate Con1) genotype 1b in human Huh-7/3-1 cells assessed as inhibition of SPT activity in presence of 3 uM sphinganine
For series [21], the system named is Hepatitis C virus. The series can be described thus: Antiviral activity against Hepatitis C virus (isolate Con1) genotype 1b in human Huh-7/3-1 cells assessed as reduction in NS3 protein level at 1 uM by Western blot analysis in presence of 1 uM C2-ceramide. Format: functional, organism-based. To be noted: Hepacivirus hominis.
Series [22] concerns Hepatitis C virus. The series can be described thus: Binding affinity at HCV NS5B at 1 nmol by ELISA. The following applies: Hepacivirus hominis; Con1.
Series [23] can be described thus: Cytotoxicity against human Huh-7/3-1 cells assessed as cell viability at 0.1 to 11 uM after 72 hrs by WST-8 assay. The class given is cell-based.

`CCCCCCC(=O)CCCCCC/C=C/C[C@@H](O)[C@H](O)[C@@](N)(CO)C(=O)O`: the outcome with Hepatitis C virus [1] was Active.

Regarding `CCCCCCCCCCCCCCCC(=O)NC(CN1CCOCC1)C(O)c1ccccc1` (stereo not given), in the series on Hepatitis C virus [2], the IC50 amounted to 1200 nM. Moreover, the Activity in series [3] was 5.3 µM.

With `CCCCCCCC(=O)CCCCCC/C=C/[C@H](C(=O)N[C@@H](Cc1ccc(OCC=C(C)C)cc1)C(=O)O)[C@@](O)(CC(=O)O)C(=O)O`, the Activity result was “tde” in the series on Hepatitis C virus [4]; “Non-toxic” in series [5]; “Dose-dependent effect” with Hepatitis C virus [9]; “tde” in the series with Hepatitis C virus [11]; over 50 µM in [13]; “tde” in the series with Hepatitis C virus [15]. Further, the Activity result in [19] is “Non-toxic”. Besides, the outcome in the series on Hepatitis C virus [6], with Hepatitis C virus [8], in the series on Hepatitis C virus [10], in the series listed under Homo sapiens, with Hepatitis C virus [18] and with Hepatitis C virus [21] was inactive. The result in the series with Hepatitis C virus [7], in the series on Hepatitis C virus [1] and in the series with Hepatitis C virus [17] was Active. Further, the half-maximal inhibitory concentration (IC50) with Hepatitis C virus [12] is 2 nM; in the series with Hepatitis C virus [14], 33 nM; in [16], 10 nM; with Hepatitis C virus [20] it was over 1000 nM.

For the molecule `CCCCCCCCCCCCCC/C=C/[C@@H](O)[C@H](CO[C@@H]1O[C@H](CO)[C@H](O)[C@H](O)[C@H]1O)NC(=O)CCCCCCCCCCCCCCCCC`, the outcome in the series with Hepatitis C virus [22] was Active.

`CCCCCCCCCCCC(=O)N[C@@H](CO)C[C@@H](O)c1ccccc1`: the Activity entry in series [23] is “Non-toxic”.
